Earlier results in patent publication US11091735B2, “Polyvalent culture medium for anaerobic bacteria under aerobic conditions” (FONDATION MEDITERRANEE INFECTION, priority 2017, dated 2021).

Details: stock solution therefore prepared in ethanol

| Compound | solubility in water |
| --- | --- |
| Cc1cc(C(C)(C)C)c(O)c(C(C)(C)C)c1 [BHT, Butylhydroxytoluene] | not soluble in water |
| vitamin E | not soluble in water |
